Results on 4 molecules are retold here after ChEMBL document CHEMBL1201862, “PubChem BioAssay data set” (2004).

SMILES strings stand for the structures. Activity calls are given as the source filed them.

One test deals with T1, Caspase-6 (Homo sapiens, UniProt P55212).
T1 sequence (P55212 whole entry): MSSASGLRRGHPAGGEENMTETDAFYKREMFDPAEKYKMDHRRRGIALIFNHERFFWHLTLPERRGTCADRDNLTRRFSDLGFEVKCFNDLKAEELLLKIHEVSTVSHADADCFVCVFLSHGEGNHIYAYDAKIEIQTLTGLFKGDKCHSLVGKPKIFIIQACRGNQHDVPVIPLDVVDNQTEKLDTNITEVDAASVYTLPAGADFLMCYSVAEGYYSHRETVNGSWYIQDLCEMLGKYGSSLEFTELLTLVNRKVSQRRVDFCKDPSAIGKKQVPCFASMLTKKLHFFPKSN
The experiment in a line: inhibition of CASP6 peptide cleavage – biochemical, VEID-R110 fluorescence, cherry-pick, dose response (AID 720632).

The next test has as its target Caspase-9 (Homo sapiens, UniProt P55211). The experiment in a line: inhibitors of purified CASP9 protease – biochemical, fluorescence, plate reader, cherry-picked samples, selectivity assay for caspase-6 inhibitor project, dose response (AID 743293).
A further test deals with Caspase-8 (Homo sapiens, UniProt Q14790). The experiment in a line: inhibitors of purified CASP8 protease – biochemical, Z-IETD-R110 fluorescence, cherry-picked samples, selectivity assay for caspase-6 inhibitor project, dose response (AID 743294).
Caspase-8, sequence (Q14790 217-374 limits assumed): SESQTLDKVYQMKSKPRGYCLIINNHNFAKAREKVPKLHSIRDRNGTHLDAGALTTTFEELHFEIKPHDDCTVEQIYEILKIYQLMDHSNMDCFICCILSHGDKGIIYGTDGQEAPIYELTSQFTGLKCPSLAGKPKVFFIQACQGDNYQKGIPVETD
Caspase-8, sequence (Q14790 385-479 limits assumed): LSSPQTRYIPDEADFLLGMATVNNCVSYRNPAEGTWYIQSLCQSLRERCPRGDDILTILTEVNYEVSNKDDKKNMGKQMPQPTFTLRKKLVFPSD
Test [1] concerns the target T2, Mannose-6-phosphate isomerase (Homo sapiens, UniProt P34949).
T2 sequence (P34949 whole entry): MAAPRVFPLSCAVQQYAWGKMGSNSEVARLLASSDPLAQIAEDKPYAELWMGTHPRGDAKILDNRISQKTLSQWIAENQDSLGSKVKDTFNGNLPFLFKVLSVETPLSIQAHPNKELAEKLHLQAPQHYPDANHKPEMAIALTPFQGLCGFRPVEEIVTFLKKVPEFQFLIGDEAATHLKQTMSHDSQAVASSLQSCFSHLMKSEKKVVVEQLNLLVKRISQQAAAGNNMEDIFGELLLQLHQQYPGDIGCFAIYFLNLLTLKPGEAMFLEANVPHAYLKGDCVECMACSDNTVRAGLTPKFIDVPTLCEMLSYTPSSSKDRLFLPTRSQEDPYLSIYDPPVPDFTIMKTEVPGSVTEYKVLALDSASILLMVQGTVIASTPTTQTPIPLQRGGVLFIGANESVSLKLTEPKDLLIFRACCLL
The experiment in a line: MPI inhibition at elevated mannose 6-phosphate – biochemical, fluorescence intensity, high mannose 6-phosphate, primary screen (AID 1220).

In another test the target is T3, Caspase-3 (Homo sapiens, UniProt P42574).
T3 sequence (P42574 whole entry): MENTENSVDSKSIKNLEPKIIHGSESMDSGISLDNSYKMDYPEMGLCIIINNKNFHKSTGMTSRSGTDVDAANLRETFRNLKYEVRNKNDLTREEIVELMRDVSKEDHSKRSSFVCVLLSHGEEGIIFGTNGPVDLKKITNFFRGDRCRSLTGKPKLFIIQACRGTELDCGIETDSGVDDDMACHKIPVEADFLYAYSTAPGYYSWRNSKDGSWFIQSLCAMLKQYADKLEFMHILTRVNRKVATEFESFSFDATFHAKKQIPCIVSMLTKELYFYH
Put plainly: SAR Analysis of small molecule inhibitors of Sentrin-specific proteases (SENPs) using a Caspase-3 Selectivity assay. [Related pubchem assays (depositor defined):AID2540, AID2599, AID434973, AID489001]. It is filed as functional.

For test [2], the target named is T4, Sentrin-specific protease 7 (Homo sapiens, UniProt Q9BQF6).
T4 sequence (Q9BQF6 whole entry): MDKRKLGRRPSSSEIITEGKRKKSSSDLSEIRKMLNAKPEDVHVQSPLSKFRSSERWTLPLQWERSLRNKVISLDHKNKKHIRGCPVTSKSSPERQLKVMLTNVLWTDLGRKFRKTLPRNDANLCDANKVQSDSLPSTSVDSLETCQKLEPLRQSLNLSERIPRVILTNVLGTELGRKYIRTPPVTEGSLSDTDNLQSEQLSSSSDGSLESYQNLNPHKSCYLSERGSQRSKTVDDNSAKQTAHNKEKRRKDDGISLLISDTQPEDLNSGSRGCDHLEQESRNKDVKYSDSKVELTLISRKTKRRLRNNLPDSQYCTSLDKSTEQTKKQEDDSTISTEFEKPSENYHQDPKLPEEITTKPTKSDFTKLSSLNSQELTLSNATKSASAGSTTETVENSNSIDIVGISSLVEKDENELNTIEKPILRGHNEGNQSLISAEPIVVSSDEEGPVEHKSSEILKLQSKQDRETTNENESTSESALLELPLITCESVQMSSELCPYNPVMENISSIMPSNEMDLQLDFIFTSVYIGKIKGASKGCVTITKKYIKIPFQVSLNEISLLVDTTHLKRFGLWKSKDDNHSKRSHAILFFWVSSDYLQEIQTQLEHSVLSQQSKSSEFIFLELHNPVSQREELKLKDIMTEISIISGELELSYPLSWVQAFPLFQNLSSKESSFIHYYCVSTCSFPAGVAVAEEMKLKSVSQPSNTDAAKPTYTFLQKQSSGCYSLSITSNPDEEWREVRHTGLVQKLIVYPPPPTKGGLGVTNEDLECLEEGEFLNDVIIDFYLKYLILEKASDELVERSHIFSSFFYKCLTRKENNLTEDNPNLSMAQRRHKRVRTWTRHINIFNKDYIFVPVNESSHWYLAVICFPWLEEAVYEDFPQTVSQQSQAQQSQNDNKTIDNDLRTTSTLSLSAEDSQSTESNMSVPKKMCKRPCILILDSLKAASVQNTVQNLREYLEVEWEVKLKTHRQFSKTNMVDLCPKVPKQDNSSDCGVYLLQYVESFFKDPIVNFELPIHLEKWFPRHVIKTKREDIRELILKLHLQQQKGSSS
The experiment in a line: inhibition of human SENP7 cleavage activity – biochemical, luminescence, SAR follow-up (AID 504497). It is filed as functional.

The next test has as its system Jurkat. The experiment in a line: SAR Analysis of small molecule inhibitors of T-cell specific antigen receptor-induced NF-kB activation in a Jurkat cell line using a luminescence assay - Set 2. [Related pubchem assays (depositor defined):AID435003, AID435012, AID465]. The class given is functional, cell-based. To be noted: Homo sapiens.
For the next test, the system named is HEK293. The experiment in a line: SAR Analysis of small molecule inhibitors of T-cell specific antigen receptor-induced NF-kB activation in a HEK-293T cell line using a luminescence assay - Set 2. [Related pubchem assays (depositor defined):AID435003, AID435012, AID489026]. The class given is functional, cell-based. The settings on record: Homo sapiens.
Test [3] is described as follows: reduction of Shn3 3'UTR-driven luciferase in osteoblasts – cell-based, Clone20 osteoblasts, firefly luciferase, cherry-picked, dose response (AID 624132).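 Further: firefly luciferase luminescence from reporter carrying the Shn3 3'UTR in osteoblasts.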 It is filed as functional.
The subject of another test is BJ. Put plainly: BJ-TERT fibroblast viability loss – cell-based, RAS-independent, luminescence, dose response (AID 1933). It is filed as functional. To be noted: Homo sapiens.
Test [4] can be described thus: DRD fibroblast viability loss – cell-based, non-viral oncogenic, luminescence, dose response (AID 1934). It is filed as functional. The settings on record: Homo sapiens.
The nature of test [5]: THP-1 cell cytotoxicity, dose response, cytotoxicity control for non-replicating M. tuberculosis project (AID 489025). It is filed as functional.
The nature of test [6]: HepG2 cell cytotoxicity, dose response, cytotoxicity control for non-replicating M. tuberculosis project (AID 489018). The class given is functional. The settings on record: Mycobacterium tuberculosis.
A short description of the next test: cells. The class given is functional.

Caspase-9, sequence (P55211 1-315 limits assumed): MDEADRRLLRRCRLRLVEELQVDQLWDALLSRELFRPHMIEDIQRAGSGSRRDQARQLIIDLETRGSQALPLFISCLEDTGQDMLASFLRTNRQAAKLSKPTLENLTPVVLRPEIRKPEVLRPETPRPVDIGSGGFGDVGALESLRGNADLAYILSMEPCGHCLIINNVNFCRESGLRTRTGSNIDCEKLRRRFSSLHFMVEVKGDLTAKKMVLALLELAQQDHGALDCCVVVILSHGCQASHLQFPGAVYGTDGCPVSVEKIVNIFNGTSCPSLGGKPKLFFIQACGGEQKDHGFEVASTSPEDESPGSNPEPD
Caspase-9, sequence (P55211 331-416 limits assumed): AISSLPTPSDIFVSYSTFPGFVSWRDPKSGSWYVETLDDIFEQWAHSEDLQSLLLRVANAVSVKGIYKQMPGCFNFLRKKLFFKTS

For `NS(=O)(=O)c1ccc(NC(=O)COC(=O)c2ccc([N+](=O)[O-])s2)cc1`, the AC50 was 3.33 µM (active) at Caspase-6, 22.8 µM (active) on Caspase-9 and 20.3 µM (active) at Caspase-8.
Regarding `CCCCNc1cc(NC(C)=O)cc2cc(OC)c(OC)cc12`, the IC50 in test [1] is > 50 µM (not active); at Caspase-3 it was > 99 µM (inactive); in test [2] it was > 99 µM (inactive).
For `COc1ccc(C(NC(=O)C(C)C)c2ccc3cccnc3c2O)cc1` (centres undefined), the IC50 is 2.38 µM (active) in the test with Jurkat and 3.15 µM (active) with HEK293. Besides, the AC50 in test [3] was 1.35 µM (active).
Consider `O=C(Cc1ccc([N+](=O)[O-])cc1)N/N=C/c1ccc([N+](=O)[O-])o1`, for which the EC50 in the test with BJ is > 150 µM (not active); in test [4], 38.3 µM (active). The CC50 in test [5] is 6.26 µM (active); in test [6], 7.53 µM (active). Moreover, the 50% inhibitory concentration (IC50) in “cells” was 13.2 µM (active).
